Key:
ALK = ALK (Homo sapiens, UniProt Q9UM73); assay: ALK enzyme assay (HTRF); assay type: biochemical; details: 0.25 nM ALK, 15.0 μM ATP, values given as pIC50 category
Procedure, shortened: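 Isolated ALK phosphorylates a biotinylated tyrosine peptide, 120 min at 20° C; anti-phosphotyrosine Eu-cryptate/streptavidin-XL665 HTRF read after 60 min with EDTA-containing detection mix.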

Colo205 = assay: Inhibition of cell proliferation (CellTiter-Glo or InCell analyzer), Colo205; assay type: cell-based; details: Homo sapiens, COLO 205, 72 h / 3 days, values given as IC50 category
Procedure, shortened: In one

NCI-H929 = assay: Inhibition of cell proliferation (CellTiter-Glo or InCell analyzer), NCI-H929; assay type: cell-based; details: Homo sapiens, 72 h / 3 days, values given as IC50 category
Procedure, shortened: In one

[1] = molecular target: T1, NIH-3T3 cells overexpressing human IR (Homo sapiens, UniProt P06213); assay: IR cellular autophosphorylation (DELFIA); assay type: cell-based; details: 2 h compound, insulin 3 ug/ml for 15 minutes, IC50 category
T1 construct: expressed in transfected cells; host or cells: NIH-3T3 (mouse fibroblasts)
T1 sequence (P06213 28-1382): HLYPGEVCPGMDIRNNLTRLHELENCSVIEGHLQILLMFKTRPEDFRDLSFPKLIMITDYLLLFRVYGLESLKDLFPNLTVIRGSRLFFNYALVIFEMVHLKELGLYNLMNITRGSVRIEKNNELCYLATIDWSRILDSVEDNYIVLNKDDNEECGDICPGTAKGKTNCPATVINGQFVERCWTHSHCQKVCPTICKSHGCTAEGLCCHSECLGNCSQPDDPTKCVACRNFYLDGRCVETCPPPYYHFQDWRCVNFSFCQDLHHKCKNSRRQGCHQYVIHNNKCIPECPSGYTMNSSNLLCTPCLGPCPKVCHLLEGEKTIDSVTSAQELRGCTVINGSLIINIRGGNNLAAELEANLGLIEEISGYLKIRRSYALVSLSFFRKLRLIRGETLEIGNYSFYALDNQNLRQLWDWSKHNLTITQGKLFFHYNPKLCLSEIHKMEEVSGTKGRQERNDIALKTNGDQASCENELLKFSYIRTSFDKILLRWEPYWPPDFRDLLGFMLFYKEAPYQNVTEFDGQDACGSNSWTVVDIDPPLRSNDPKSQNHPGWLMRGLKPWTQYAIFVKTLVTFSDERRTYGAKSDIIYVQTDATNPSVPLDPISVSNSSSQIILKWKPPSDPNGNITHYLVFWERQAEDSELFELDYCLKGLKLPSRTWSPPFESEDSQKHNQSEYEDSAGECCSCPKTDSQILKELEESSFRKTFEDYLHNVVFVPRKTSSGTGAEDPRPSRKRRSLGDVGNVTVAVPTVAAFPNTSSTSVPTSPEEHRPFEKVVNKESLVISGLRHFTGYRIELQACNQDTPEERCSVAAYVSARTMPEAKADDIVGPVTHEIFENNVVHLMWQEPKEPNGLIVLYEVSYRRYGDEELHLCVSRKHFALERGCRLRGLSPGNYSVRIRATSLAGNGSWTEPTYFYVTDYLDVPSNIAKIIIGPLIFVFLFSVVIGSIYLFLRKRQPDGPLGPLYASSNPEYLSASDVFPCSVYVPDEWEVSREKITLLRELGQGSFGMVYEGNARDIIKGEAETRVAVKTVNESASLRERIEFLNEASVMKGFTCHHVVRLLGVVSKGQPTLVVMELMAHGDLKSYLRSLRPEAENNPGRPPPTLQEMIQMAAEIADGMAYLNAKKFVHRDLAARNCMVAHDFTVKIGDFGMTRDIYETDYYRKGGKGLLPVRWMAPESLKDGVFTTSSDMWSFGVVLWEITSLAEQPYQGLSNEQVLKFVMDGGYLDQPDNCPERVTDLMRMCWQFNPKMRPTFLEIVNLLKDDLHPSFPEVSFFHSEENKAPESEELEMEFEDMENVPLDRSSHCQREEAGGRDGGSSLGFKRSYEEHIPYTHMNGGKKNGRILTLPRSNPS
Procedure, shortened: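 Receptor autophosphorylation measured by DELFIA, capturing IGF-1R or IRβ and detecting with europium anti-pTyr, reported as percent of IGF-1- or insulin-stimulated signal. Compounds (30 uM to 1.5 nM) added 2 h before ligand, then 15 min stimulation (IGF-1 30 ng/ml or insulin 3 ug/ml).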

Sequence of ALK (Q9UM73 19-1620): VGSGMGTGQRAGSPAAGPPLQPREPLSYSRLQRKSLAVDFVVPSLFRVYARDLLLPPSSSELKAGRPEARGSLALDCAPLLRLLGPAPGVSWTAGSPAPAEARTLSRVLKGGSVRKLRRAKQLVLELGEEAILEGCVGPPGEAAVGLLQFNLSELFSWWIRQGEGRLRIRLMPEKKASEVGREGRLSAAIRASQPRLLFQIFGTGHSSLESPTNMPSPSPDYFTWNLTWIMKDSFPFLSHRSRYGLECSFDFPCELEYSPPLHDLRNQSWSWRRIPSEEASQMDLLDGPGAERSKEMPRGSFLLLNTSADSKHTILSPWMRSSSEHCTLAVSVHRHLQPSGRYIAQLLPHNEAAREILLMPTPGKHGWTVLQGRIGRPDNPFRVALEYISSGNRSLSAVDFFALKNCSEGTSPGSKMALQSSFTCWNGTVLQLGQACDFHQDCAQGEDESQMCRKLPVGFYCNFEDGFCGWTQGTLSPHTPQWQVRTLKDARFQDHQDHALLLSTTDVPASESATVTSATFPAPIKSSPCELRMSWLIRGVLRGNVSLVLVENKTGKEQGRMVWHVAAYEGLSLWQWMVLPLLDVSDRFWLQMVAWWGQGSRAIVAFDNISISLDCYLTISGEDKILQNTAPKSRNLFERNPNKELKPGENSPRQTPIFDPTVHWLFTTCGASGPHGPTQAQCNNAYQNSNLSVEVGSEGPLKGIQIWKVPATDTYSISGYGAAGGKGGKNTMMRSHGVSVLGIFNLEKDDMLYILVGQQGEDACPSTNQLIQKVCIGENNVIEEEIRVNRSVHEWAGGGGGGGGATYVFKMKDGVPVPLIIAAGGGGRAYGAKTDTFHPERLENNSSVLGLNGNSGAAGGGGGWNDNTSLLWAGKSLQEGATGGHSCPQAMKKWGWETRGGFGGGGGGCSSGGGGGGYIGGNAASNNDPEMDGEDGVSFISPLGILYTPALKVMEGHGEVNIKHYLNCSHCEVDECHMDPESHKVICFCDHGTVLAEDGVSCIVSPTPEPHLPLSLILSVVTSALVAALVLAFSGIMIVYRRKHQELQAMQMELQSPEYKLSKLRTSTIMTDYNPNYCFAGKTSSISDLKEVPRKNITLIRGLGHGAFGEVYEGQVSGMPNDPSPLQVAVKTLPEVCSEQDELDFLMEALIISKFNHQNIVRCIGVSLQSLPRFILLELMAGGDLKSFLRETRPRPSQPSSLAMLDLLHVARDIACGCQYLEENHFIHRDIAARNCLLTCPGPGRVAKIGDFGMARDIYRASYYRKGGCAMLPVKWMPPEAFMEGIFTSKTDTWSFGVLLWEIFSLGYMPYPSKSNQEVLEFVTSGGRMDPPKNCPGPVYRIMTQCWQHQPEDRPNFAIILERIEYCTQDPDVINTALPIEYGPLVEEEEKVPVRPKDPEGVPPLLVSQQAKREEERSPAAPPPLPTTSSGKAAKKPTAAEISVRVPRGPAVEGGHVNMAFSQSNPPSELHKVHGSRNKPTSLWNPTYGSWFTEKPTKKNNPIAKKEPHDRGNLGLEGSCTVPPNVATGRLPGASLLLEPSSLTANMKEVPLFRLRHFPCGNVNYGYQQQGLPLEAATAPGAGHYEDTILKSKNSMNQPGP

| Structure (SMILES) | IC50 (ALK) | IC50 (Colo205) | IC50 (NCI-H929) | IC50 [1] |
| --- | --- | --- | --- | --- |
| COc1cc(N2CCN(C(C)C)CC2)ccc1Nc1nc(Nc2ccccc2C(N)=O)c2cc[nH]c2n1 [Example 7, 2-[(2-{[4-[4-(1-methylethyl)-1-piperazinyl]-2-(methyloxy)phenyl]amino}-1H-pyrrolo[2,3-d]pyrimidin-4-yl)amino]benzamide] | 0.251 to 1 nM | < 250 nM | < 250 nM | 100 to 500 nM |
| COc1cc2c(cc1Nc1nc(Nc3cc(Cl)cc(F)c3C(N)=O)c3cc[nH]c3n1)N(C(=O)CN1CCCC1)CC2 [Example 175, 4-chloro-2-fluoro-6-[(2-{[5-(methyloxy)-1-(1-pyrrolidinylacetyl)-2,3-dihydro-1H-indol-6-yl]amino}-1H-pyrrolo[2,3-d]pyrimidin-4-yl)amino]benzamide] | 1.26 to 3.98 nM | 250 to 1000 nM | < 250 nM | < 100 nM |
| COc1ccc(NC(=O)CN(C)C)cc1Nc1nc(Nc2cccc(F)c2C(N)=O)c2cc[nH]c2n1 [Example 244, 2-[(2-{[5-[(N,N-dimethylglycyl)amino]-2-(methyloxy)phenyl]amino}-1H-pyrrolo[2,3-d]pyrimidin-4-yl)amino]-6-fluorobenzamide] | 0.251 to 1 nM | < 250 nM | < 250 nM | < 100 nM |
| CNC(=O)c1c(F)cccc1Nc1nc(Nc2cc3c(cc2OC)CCC(=O)N3)nc2[nH]ccc12 [Example 222, 2-fluoro-N-methyl-6-[(2-{[6-(methyloxy)-2-oxo-1,2,3,4-tetrahydro-7-quinolinyl]amino}-1H-pyrrolo[2,3-d]pyrimidin-4-yl)amino]benzamide] | 5.01 to 200 nM | > 1000 nM | 250 to 1000 nM | > 500 nM |
| CCCN(C)CC(=O)N1CCc2cc(OC)c(Nc3nc(Nc4cccc(F)c4C(N)=O)c4cc[nH]c4n3)cc21 [Example 168, 2-fluoro-6-[(2-{[5-(methyloxy)-1-(N-methyl-N-propylglycyl)-2,3-dihydro-1H-indol-6-yl]amino}-1H-pyrrolo[2,3-d]pyrimidin-4-yl)amino]benzamide] | 1.26 to 3.98 nM | < 250 nM | < 250 nM | < 100 nM |
| COc1cc2c(cc1Nc1nc(Nc3cc(F)cc(F)c3C(N)=O)c3cc[nH]c3n1)NCCC2 [Example 220, 2,4-difluoro-6-[(2-{[6-(methyloxy)-1,2,3,4-tetrahydro-7-quinolinyl]amino}-1H-pyrrolo[2,3-d]pyrimidin-4-yl)amino]benzamide] | 5.01 to 200 nM | > 1000 nM | > 1000 nM | > 500 nM |
| COc1cc2c(cc1Nc1nc(Nc3cccc(F)c3C(N)=O)c3cc[nH]c3n1)N(C(C)=O)CC2 [Example 134, 2-[(2-{[1-acetyl-5-(methyloxy)-2,3-dihydro-1H-indol-6-yl]amino}-1H-pyrrolo[2,3-d]pyrimidin-4-yl)amino]-6-fluorobenzamide] | 1.26 to 3.98 nM | 250 to 1000 nM | < 250 nM | < 100 nM |
| COc1cc(C2CCN(C(C)C)CC2)ccc1Nc1nc(Nc2ccc(F)cc2C(N)=O)c2cc[nH]c2n1 [Example 58, 5-fluoro-2-[(2-{[4-[1-(1-methylethyl)-4-piperidinyl]-2-(methyloxy)phenyl]amino}-1H-pyrrolo[2,3-d]pyrimidin-4-yl)amino]benzamide] | 0.251 to 1 nM | < 250 nM | < 250 nM | < 100 nM |
| CCCN(CCC)[C@@H](C)C(=O)N1CCc2cc(OC)c(Nc3nc(Nc4cccc(F)c4C(=O)NC)c4cc[nH]c4n3)cc21 [Example 191, 2-[(2-{[1-(N,N-dipropyl-L-alanyl)-5-(methyloxy)-2,3-dihydro-1H-indol-6-yl]amino}-1H-pyrrolo[2,3-d]pyrimidin-4-yl)amino]-6-fluoro-N-methylbenzamide] | 5.01 to 200 nM | > 1000 nM | > 1000 nM | > 500 nM |
| COc1cc2c(cc1Nc1nc(Nc3cccc(F)c3C(N)=O)c3cc[nH]c3n1)N(C(=O)CCN(C)C)CC2 [Example 118, 2-[(2-{[1-(N,N-dimethyl-b-alanyl)-5-(methyloxy)-2,3-dihydro-1H-indol-6-yl]amino}-1H-pyrrolo[2,3-d]pyrimidin-4-yl)amino]-6-fluorobenzamide] | 5.01 to 200 nM | 250 to 1000 nM | < 250 nM | > 500 nM |
| CCN(CC)CC(=O)N1CCc2cc(OC)c(Nc3nc(Nc4cccc(F)c4C(=O)NC)c4cc[nH]c4n3)cc21 [Example 137, 2-[(2-{[1-(N,N-diethylglycyl)-5-(methyloxy)-2,3-dihydro-1H-indol-6-yl]amino}-1H-pyrrolo[2,3-d]pyrimidin-4-yl)amino]-6-fluoro-N-methylbenzamide] | 5.01 to 200 nM | 250 to 1000 nM | < 250 nM | 100 to 500 nM |
| CNC(=O)c1c(F)cccc1Nc1nc(Nc2cc3c(cc2OC)CCCN3C(=O)CCN(C)C)nc2[nH]ccc12 [Example 213, 2-[(2-{[1-(N,N-dimethyl-β-alanyl)-6-(methyloxy)-1,2,3,4-tetrahydro-7-quinolinyl]amino}-1H-pyrrolo[2,3-d]pyrimidin-4-yl)amino]-6-fluoro-N-methylbenzamide] | 5.01 to 200 nM | > 1000 nM | 250 to 1000 nM | > 500 nM |
| COc1cc2c(cc1Nc1nc(Nc3cccc(F)c3C(N)=O)c3cc[nH]c3n1)N(C(=O)CN1CCN(C(C)C)CC1)CC2 [Example 186, 2-fluoro-6-[(2-{[1-{[4-(1-methylethyl)-1-piperazinyl]acetyl}-5-(methyloxy)-2,3-dihydro-1H-indol-6-yl]amino}-1H-pyrrolo[2,3-d]pyrimidin-4-yl)amino]benzamide] | 5.01 to 200 nM | > 1000 nM | 250 to 1000 nM | > 500 nM |
| COc1cc2c(cc1Nc1nc(Nc3ccc(F)c(F)c3C(=O)NC(C)C)c3cc[nH]c3n1)N(C(=O)CN(C)C)CC2 [Example 161, 6-[(2-{[1-(N,N-dimethylglycyl)-5-(methyloxy)-2,3-dihydro-1H-indol-6-yl]amino}-1H-pyrrolo[2,3-d]pyrimidin-4-yl)amino]-2,3-difluoro-N-(1-methylethyl)benzamide] | 1.26 to 3.98 nM | > 1000 nM | 250 to 1000 nM | > 500 nM |
| CCCN1CCC(c2ccc(Nc3nc(Nc4cc(F)cc(F)c4C(N)=O)c4cc[nH]c4n3)c(OC)c2)CC1 [Example 92, 2,4-difluoro-6-[(2-{[2-(methyloxy)-4-(1-propyl-4-piperidinyl)phenyl]amino}-1H-pyrrolo[2,3-d]pyrimidin-4-yl)amino]benzamide] | 0.251 to 1 nM | < 250 nM | < 250 nM | < 100 nM |
| COc1cc2c(cc1Nc1nc(Nc3cccc(F)c3C(N)=O)c3cc[nH]c3n1)CN(CCCN(C)C)CC2 [Example 232, 2-[(2-{[2-[3-(dimethylamino)propyl]-6-(methyloxy)-1,2,3,4-tetrahydro-7-isoquinolinyl]amino}-1H-pyrrolo[2,3-d]pyrimidin-4-yl)amino]-6-fluorobenzamide] | 1.26 to 3.98 nM | > 1000 nM | < 250 nM | > 500 nM |
| CCN(C)CC(=O)N1CCc2cc(OC)c(Nc3nc(Nc4cccc(F)c4C(=O)NC)c4cc[nH]c4n3)cc21 [Example 165, 2-[(2-{[1-(N-ethyl-N-methylglycyl)-5-(methyloxy)-2,3-dihydro-1H-indol-6-yl]amino}-1H-pyrrolo[2,3-d]pyrimidin-4-yl)amino]-6-fluoro-N-methylbenzamide] | 1.26 to 3.98 nM | > 1000 nM | 250 to 1000 nM | 100 to 500 nM |
| COc1cc2c(cc1Nc1nc(Nc3cccc(F)c3C(N)=O)c3cc[nH]c3n1)CN(C(=O)CCN1CCOCC1)CC2 [Example 231, 2-fluoro-6-{[2-({6-(methyloxy)-2-[3-(4-morpholinyl)propanoyl]-1,2,3,4-tetrahydro-7-isoquinolinyl}amino)-1H-pyrrolo[2,3-d]pyrimidin-4-yl]amino}benzamide] | 5.01 to 200 nM | > 1000 nM | 250 to 1000 nM | > 500 nM |
| COc1cc2c(cc1Nc1nc(Nc3cc(Cl)cc(F)c3C(N)=O)c3cc[nH]c3n1)N(C(=O)CN(C)C)CC2 [Example 119, 4-chloro-2-[(2-{[1-(N,N-dimethylglycyl)-5-(methyloxy)-2,3-dihydro-1H-indol-6-yl]amino}-1H-pyrrolo[2,3-d]pyrimidin-4-yl)amino]-6-fluorobenzamide] | 1.26 to 3.98 nM | 250 to 1000 nM | < 250 nM | < 100 nM |
| COc1cc2c(cc1Nc1nc(Nc3cccc(F)c3C(N)=O)c3cc[nH]c3n1)N(C(=O)CN1CCOCC1)CC2 [Example 185, 2-fluoro-6-[(2-{[5-(methyloxy)-1-(4-morpholinylacetyl)-2,3-dihydro-1H-indol-6-yl]amino}-1H-pyrrolo[2,3-d]pyrimidin-4-yl)amino]benzamide] | 5.01 to 200 nM | > 1000 nM | < 250 nM | > 500 nM |
| COc1cc(OCCCN2CCN(C)CC2)ccc1Nc1nc(Nc2cccc(F)c2C(N)=O)c2cc[nH]c2n1 [Example 205, 2-fluoro-6-({2-[(2-(methyloxy)-4-{[3-(4-methyl-1-piperazinyl)propyl]oxy}phenyl)amino]-1H-pyrrolo[2,3-d]pyrimidin-4-yl}amino)benzamide] | 1.26 to 3.98 nM | < 250 nM | < 250 nM | 100 to 500 nM |
